Earlier results in US7438896B2, “Method of skin care using lipoic and ascorbic acids” (N.V. Perricone LLC, priority 1995, dated 2008).

What was measured:
[1] = system: rat edema; details: compared with lipoic alone or vitamin E alone
[2] = system: insulin
[3] = system: porcine skin; details: compositions without serine
[4] = system: cultured human keratinocytes; details: compositions without serine

SMILES: O=C(O)CCCC[C@@H]1CCSS1 (single isomer, unassigned) [R-enantiomer of lipoic acid]
- anti-inflammatory effect in rat edema model [1]: superior to lipoic alone or to vitamin E alone

SMILES: O=C(O)CCCC[C@H]1CCSS1 (single isomer, unassigned) [S-enantiomer]
- effect on the action of insulin [2]: decreased the effect of insulin

SMILES: O=C(O)CCCCC1CCSS1 (stereo not shown) [lipoic acid, 1,2-dithiolane-3-pentanoic acid]
- effect on ceramide production [3]: had no effect
- effect on ceramide production [4]: had no effect
